Values joined by “and” are separate entries in the source; they are usually repeats but may differ in a detail not shown here. Equal entries are not always repeated.
Target: T1, MAL^TIR (Homo sapiens, UniProt P58753)
T1 construct: MAL (residues 79–221); 6xHis; made in house; host or cells: E. coli BL21 (DE3)
Test: T‐Surf phage library (P8 and P3) selection against MAL^TIR, four rounds, NGS read counts
Format: binding
Conditions: for P8_MAL Rank (after) / P8_MAL Rank (before): P8 library; for Population: 4th round of selection against MAL TIR, share of NGS reads; for P3_MAL Rank (after) / P3_MAL Rank (before): P3 library
How it was run: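 Four panning rounds on TIR domain adsorbed at 5 µg mL^−1; binding 1 h at 20–22 °C, elution with 100 mM HCl. Output: NGS read counts of round‐4 pools versus naïve library.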

[1] = 4R selection against MAL, rank after grouping
[2] = 4R selection against MAL, rank before grouping
[3] = P8_MAL: rank by count after grouping
[4] = P8_MAL: rank by count before grouping
[5] = P8_MAL pool: P8 T-Surf phage library
[6] = selection against MAL TIR, rank by count after grouping
[7] = selection against MAL TIR, rank by count before grouping
[8] = P3_MAL: rank by count after grouping
[9] = P3_MAL: rank by count before grouping
[10] = selection against MAL, rank by count after grouping
[11] = selection against MAL, rank by count before grouping
[12] = selection against MAL, rank after grouping
[13] = selection against MAL, rank before grouping

T1 sequence (P58753 79-221): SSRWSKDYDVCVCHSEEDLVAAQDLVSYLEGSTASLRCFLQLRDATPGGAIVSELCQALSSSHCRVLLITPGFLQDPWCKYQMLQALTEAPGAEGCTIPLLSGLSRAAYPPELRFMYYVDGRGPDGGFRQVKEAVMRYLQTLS

## HFWWIPLKSILGETSF
[1]
  P8_MAL Rank (after): 632
[2]
  P8_MAL Rank (before): 2423

## AFLYTFLNNLIHPTTF
[3]
  Rank (after): 145
[4]
  Rank (before): 1868

## AFFWAQLKSVLGNPTM
[5]
  Population: 0.00371% and 0.00278%

## LFFWESLKQLLRSVGR
[5]
  Population: 0.0034%

## AFFLAQLKSEPTNPTM
[6]
  P8_MAL Rank (after): 272
[7]
  P8_MAL Rank (before): 1581

## AFLGHLYNALVQAGIH
[5]
  Population: 0.00371%

## DLFLSKLSQHLLKREK
[8]
  Rank (after): 455
[9]
  Rank (before): 1861

## PNLLTKVLHYLMRTKT
[10]
  P3_MAL Rank (after): 768
[11]
  P3_MAL Rank (before): 2667

## WFYERQVSLILRDTNV
[3]
  Rank (after): 98
[4]
  Rank (before): 1259

## SFLHFLLLSRPETAYI
[3]
  Rank (after): 395
[4]
  Rank (before): 1438

## KRFWERLRYMLPHSSL
[6]
  P3_MAL Rank (after): 242
[7]
  P3_MAL Rank (before): 3466

## RNFVAYLFQGLANKVI
[3]
  Rank (after): 427
[4]
  Rank (before): 2195

## LFFWEKLRQLLRRAAS
[3]
  Rank (after): 387
[4]
  Rank (before): 2124

## WFYERLVSLILRIPK
[3]
  Rank (after): 188
[4]
  Rank (before): 742

## RNNYIGHLYQALYRNG
[1]
  P8_MAL Rank (after): 596
[2]
  P8_MAL Rank (before): 2297

## YAFTSHLHHALRLNKIETF
[10]
  P3_MAL Rank (after): 711
[11]
  P3_MAL Rank (before): 1475

## TFLGHLYNALVQAGIP
[5]
  Population: 0.00463%

## LKAESWRQAPEKAGKL
[6]
  P3_MAL Rank (after): 259
[7]
  P3_MAL Rank (before): 2306

## HHNGSYCEALAEHKER
[12]
  P3_MAL Rank (after): 486
[13]
  P3_MAL Rank (before): 2815

## AFLYTFPINLTHPTNF
[5]
  Population: 0.0034%

## NLWRNALTAAANLSSW
[10]
  P8_MAL Rank (after): 720
[11]
  P8_MAL Rank (before): 2656

## AFYWAQLNSVLRDTTM
[12]
  P8_MAL Rank (after): 492
[13]
  P8_MAL Rank (before): 1785

## AFFWAQLKSVLQSDD
[10]
  P8_MAL Rank (after): 679
[11]
  P8_MAL Rank (before): 1635

## YAFTCHLHRYLVQRGV
P3_MAL pool: P3 T-Surf phage library
  Population: 0.00413%

## VLQNFISHPYDFLARK
[12]
  P3_MAL Rank (after): 570
[13]
  P3_MAL Rank (before): 1688

## LKEESWRRALERAGKL
[8]
  Rank (after): 410
[9]
  Rank (before): 2307

## MSHLYQGLNNRGIFIF
[12]
  P3_MAL Rank (after): 527
[13]
  P3_MAL Rank (before): 2944

## WFYERLVSLLLRATKV
[3]
  Rank (after): 170
[4]
  Rank (before): 1156

## LKVESWRQALKQRAL
[12]
  P3_MAL Rank (after): 483
[13]
  P3_MAL Rank (before): 2283

## FMSHLYQGLKNRGIFTF
[8]
  Rank (after): 113
[9]
  Rank (before): 201

## KERLHQWKLALTQAANLS
[10]
  P3_MAL Rank (after): 766
[11]
  P3_MAL Rank (before): 3603

## PNLRTNVMNYLMRTKT
[8]
  Rank (after): 175
[9]
  Rank (before): 2692

## YAFSGHLLHDLVLIRE
[8]
  Rank (after): 427
[9]
  Rank (before): 1347

## SFYWRQVSIILGDPTV
[6]
  P8_MAL Rank (after): 249
[7]
  P8_MAL Rank (before): 1442

## RNLVAYLFQALETKGI
[3]
  Rank (after): 416
[4]
  Rank (before): 2243

## PNLRTKLLNYLMHTKT
[6]
  P3_MAL Rank (after): 247
[7]
  P3_MAL Rank (before): 2742

## WFYERLLSLILRDTKV
[5]
  Population: 0.00278%

## AVLYTFLINLTHPTNF
[5]
  Population: 0.00402%

## FLSHLHRYLVQRGV
[1]
  P3_MAL Rank (after): 601
[2]
  P3_MAL Rank (before): 1134

## HFYWILLKSILGETRL
[1]
  P8_MAL Rank (after): 618
[2]
  P8_MAL Rank (before): 2426

## RGFLSHLRHPVHPKDH
[1]
  P3_MAL Rank (after): 615
[2]
  P3_MAL Rank (before): 2367

## RLLKWKKRCISFIAG
[8]
  Rank (after): 400
[9]
  Rank (before): 2492

## SFLGHLYNALVQADIH
[1]
  P8_MAL Rank (after): 664
[2]
  P8_MAL Rank (before): 1452

## AFFCTQLLNVLRKPTI
[1]
  P8_MAL Rank (after): 655
[2]
  P8_MAL Rank (before): 1590

## YNFISHLYDALHQFHSWV
[8]
  Rank (after): 150
[9]
  Rank (before): 523

## TFLGHLYNALVQAGI
[12]
  P8_MAL Rank (after): 498
[13]
  P8_MAL Rank (before): 2582

## AFLYTFLINLTHPTKV
[12]
  P8_MAL Rank (after): 514
[13]
  P8_MAL Rank (before): 1851

## SFFWSKLSYHLPAPQH
[12]
  P3_MAL Rank (after): 559
[13]
  P3_MAL Rank (before): 2991

## SSFRVGLCRLMALIQQ
[10]
  P3_MAL Rank (after): 685
[11]
  P3_MAL Rank (before): 3125

## KLLWVKFKFFLPSLSR
[6]
  P8_MAL Rank (after): 211
[7]
  P8_MAL Rank (before): 2730

## RNFVAYLFQALAKPA
[3]
  Rank (after): 164
[4]
  Rank (before): 2209

## SEFIQKIILCMNQKIV
[3]
  Rank (after): 155
[4]
  Rank (before): 2458

## HLLKIVLEKFASHRSS
[1]
  P8_MAL Rank (after): 614
[2]
  P8_MAL Rank (before): 2335

— publication PMC11714206, “Massively Parallel Screening of Toll/Interleukin‐1 Receptor (TIR)‐Derived Peptides Reveals Multiple Toll‐Like Receptors (TLRs)‐Targeting Immunomodulatory Peptides” (Advanced Science, 2024)
